Where two headings read alike, the source gives them in different places.
Legend:
SARS-CoV-2 [1] = details: for % Inh. (% Inhibition of SARS-CoV-2): 10 µM
SARS-CoV-2 [2] = assay: microbe, parasite or virus in culture; details: Severe acute respiratory syndrome coronavirus 2, Caco-2, 48 h

Nizofenone fumarate
% Inh. (% Inhibition of SARS-CoV-2) (SARS-CoV-2 [1]): 52.4%

CC[C@H](CO)Nc1nc(NCc2ccc(-c3ccccn3)cc2)c2ncn(C(C)C)c2n1 [CR8-(R)]
% Inh. (% Inhibition of SARS-CoV-2) (SARS-CoV-2 [1]): 76.6%

CO[C@@H](C)Cn1c(=O)n(C)c2cnc3ccc(-c4cncc(C(C)(C)O)c4)cc3c21 [LY3023414]
% Inh. (% Inhibition of SARS-CoV-2) (SARS-CoV-2 [1]): 92.7%

NI-57
% Inh. (% Inhibition of SARS-CoV-2) (SARS-CoV-2 [1]): 78.3%

O=[N+]([O-])c1ccccc1S(=O)(=O)NCC1CCC(CNC[C@H]2CCc3ccccc3C2)CC1 (stereo partly shown) [NTNCB]
% Inh. (% Inhibition of SARS-CoV-2) (SARS-CoV-2 [1]): 92.7%

Cc1nc(C#Cc2ccnc(Cl)c2)c(C)n1-c1ccc(OC(F)(F)F)cc1 [CTEP (RO4956371)]
% Inh. (% Inhibition of SARS-CoV-2) (SARS-CoV-2 [1]): 59.7%

Cc1ccc(Nc2ncc3c(n2)N(C)C(=O)N(c2cc(NC(=O)c4cccc(C(F)(F)F)c4)ccc2C)C3)cn1 [GNF-7]
% Inh. (% Inhibition of SARS-CoV-2) (SARS-CoV-2 [1]): 107.6%

Cc1cccc(CC(=O)N2CCc3c2ccc(-c2cn(C)c4ncnc(N)c24)c3F)n1 [GSK2656157]
% Inh. (% Inhibition of SARS-CoV-2) (SARS-CoV-2 [1]): 95.0%

Cn1c(Nc2ccc(C(F)(F)F)cc2)nc2cc(Oc3ccnc(-c4ncc(C(F)(F)F)[nH]4)c3)ccc21 [RAF265 (CHIR-265)]
% Inh. (% Inhibition of SARS-CoV-2) (SARS-CoV-2 [1]): 93.2%

C[C@]12CC[C@H]3[C@@H](CC[C@]4(O)C[C@@H](O)CC[C@]34C=O)[C@@]1(O)CC[C@@H]2C1=CC(=O)OC1 [Strophantidin]
% Inh. (% Inhibition of SARS-CoV-2) (SARS-CoV-2 [1]): 67.1%

CCOC(=O)N1CCC(=C2c3ccc(Cl)cc3CCc3cccnc32)CC1 [LORATADINE]
% Inh (% inhibition of virus infection) (SARS-CoV-2 [1]; comparative experiments, Examples 1 and 2): 91.4%

Cn1c(C#N)ccc1-c1ccc2c(c1)C(C)(C)OC(=S)N2 [Tanaproget]
IC50 (SARS-CoV-2 [1]): 1.13 µM
IC50 (SARS-CoV-2 [2]): > 1 µM
inhibition at 10 µM (SARS-CoV-2 [2]; read-out: % Inh. (% Inhibition of SARS-CoV-2)): 96.2%
IC50 (SARS-CoV-2 [2]; read-out: pIC50 (converted)): 1.12 µM

CC(C)(N)c1cc(C(=O)N[C@@H]2CCc3ccc(Oc4ccnc5c4CCC(=O)N5)cc3C2)cc(C(F)(F)F)c1 [ML-786]
% Inh. (% Inhibition of SARS-CoV-2) (SARS-CoV-2 [1]): 105.5%

CN(C)C(=O)c1ccc(S(=O)(=O)c2ccc(NC(=O)[C@@](C)(O)C(F)(F)F)c(Cl)c2)cc1 [AZD7545]
% Inh. (% Inhibition of SARS-CoV-2) (SARS-CoV-2 [1]): 82.4%

SNS-314 methanesulfonate
% Inh. (% Inhibition of SARS-CoV-2) (SARS-CoV-2 [1]): 81.4%

NC(=O)N/N=C/c1ccc(Oc2ccc(F)cc2)cc1 [co-102862]
% Inh. (% Inhibition of SARS-CoV-2) (SARS-CoV-2 [1]): 55.2%

CC(C)n1nc(-c2ccc3oc(N)nc3c2)c2c(N)ncnc21 [INK 128 (MLN0128)]
% Inh. (% Inhibition of SARS-CoV-2) (SARS-CoV-2 [1]): 84.9%

COC(=O)C1=C(C)NC(C)=C(C(=O)OCCSc2ccccc2)C1C (stereo not shown) [PCA-4248]
% Inh. (% Inhibition of SARS-CoV-2) (SARS-CoV-2 [1]): 55.3%

Cc1sc2c(c1C)C(c1ccc(Cl)cc1)=N[C@@H](CC(=O)Nc1ccc(OCCOCCOCCOCCNc3cccc4c3C(=O)N(C3CCC(=O)NC3=O)C4=O)cc1)c1nnc(C)n1-2 (stereo partly shown) [ARV-825]
% Inh. (% Inhibition of SARS-CoV-2) (SARS-CoV-2 [1]): 52.8%

O=C1/C(=C/c2ccccc2)C[C@@]2(O)[C@H]3Cc4ccc(O)c5c4[C@@]2(CCN3CC2CC2)[C@H]1O5 [BNTX]
% Inh. (% Inhibition of SARS-CoV-2) (SARS-CoV-2 [1]): 77.3%

COc1ccc(S(=O)(=O)N(CCO)c2ccccc2CN(C)C/C=C/c2ccc(Cl)cc2)cc1 [KN-93]
% Inh. (% Inhibition of SARS-CoV-2) (SARS-CoV-2 [1]): 88.4%

Cc1[nH]nc2ccc(-c3cncc(OC[C@@H](N)Cc4ccccc4)c3)cc12 [A-674563]
% Inh. (% Inhibition of SARS-CoV-2) (SARS-CoV-2 [1]): 53.3%

CCCCCCCC/C=C/CCCCCCCC(=O)OC[C@H]1O[C@@H](n2ccc(N)nc2=O)C(F)(F)[C@@H]1O [Gemcitabine (elaidate)]
% Inh. (% Inhibition of SARS-CoV-2) (SARS-CoV-2 [1]): 111.3%

c1ccc(CCCCN2CCC(c3ccccc3)CC2)cc1 [4-PPBP]
% Inh. (% Inhibition of SARS-CoV-2) (SARS-CoV-2 [1]): 63.1%

Tocofersolan
% Inh. (% Inhibition of SARS-CoV-2) (SARS-CoV-2 [1]): 95.2%

C[C@@H]1COCCN1c1cc(C2(S(C)(=O)=O)CC2)nc(-c2cccc3[nH]ccc23)n1 [AZ20]
% Inh. (% Inhibition of SARS-CoV-2) (SARS-CoV-2 [1]): 100.0%

COc1cc(/C=C2\CCCN([C@@H](C)c3ccc(F)cc3)C2=O)ccc1-n1cnc(C)c1 [E 2012]
% Inh. (% Inhibition of SARS-CoV-2) (SARS-CoV-2 [1]): 100.8%

CN1C/C=C/CCOc2cccc(c2)-c2ccnc(n2)Nc2cccc(c2)C1 [SB1317]
% Inh. (% Inhibition of SARS-CoV-2) (SARS-CoV-2 [1]): 56.5%

NC1(Cc2ccc(Cl)cc2)CCN(c2ncnc3[nH]ccc23)CC1 [CCT128930]
% Inh. (% Inhibition of SARS-CoV-2) (SARS-CoV-2 [1]): 86.7%

O=C(NNc1nc2cc(F)ccc2n2cccc12)c1cnccn1 [SC144]
% Inh. (% Inhibition of SARS-CoV-2) (SARS-CoV-2 [1]): 108.7%

CCN1/C(=C/C(C)=O)Sc2ccc(OC)cc21 [TG003]
% Inh. (% Inhibition of SARS-CoV-2) (SARS-CoV-2 [1]): 55.4%

Reference: patent US20230126310A1 (priority 2020, published 2023)
